Calls of active or inactive are those of the source. No rule for the calls is given here.
System: MRP1 cells, doxorubicin viability shift, 10 uM compound
Assay: doxorubicin EC50 increase in MRP-1 cells, dose response, cell-based, doxorubicin EC50 shift (AID 844)
Details: for EC50: measured here: doxorubicin EC50 with compound

Structure (SMILES)	fold increase in Dox EC50	EC50 [µM]
O=C(Cn1c(COc2ccc(Cl)cc2)nc2ccccc21)NCC(F)(F)F	0.75 (inactive)	4.04
Cc1onc(-c2ccccc2Cl)c1C(=O)OCC(=O)Nc1ccc2c(c1)OCO2	1.19 (inactive)	6.42
COCCOC(=O)c1c(C)oc2ccc(OCC=C(C)C)cc12	0.5 (inactive)	2.69
CC(/C=C1\SC(=S)N(NC(=O)c2ccc(O)cc2)C1=O)=C\c1ccccc1	0.83 (inactive)	4.46
Cc1nnc(NC(=O)c2ccco2)s1	1.16 (inactive)	6.28
CC(/C=C1\SC(=O)N(CC(=O)Nc2ccc(O)cc2)C1=O)=C\c1ccccc1	0.68 (inactive)	3.7
CCOc1ccc(OCC)c(-c2c(=O)n(OCc3ccc(Cl)cc3)c3ccccc3[n+]2[O-])c1	0.53 (inactive)	2.86
O=C1[C@@H]2[C@H](Cc3ccc(O)cc3)N[C@]3(C(=O)Nc4ccccc43)[C@@H]2C(=O)N1c1ccc(F)cc1	1.46 (inactive)	7.88
CC(NC(=O)CN1CCN(Cc2ccc(Cl)cc2)C1=O)c1ccc2c(c1)OCCO2 (stereo not drawn)	0.87 (inactive)	4.67
COc1ccc(C2=NN(C(=O)c3cccs3)C(c3ccc(OC)cc3)C2)cc1 (stereo not drawn)	1.06 (inactive)	5.7
COc1ccc(/C=N\NC(=O)c2cc(O)c(O)c(O)c2)cc1CN1CCN(c2ccc(F)cc2)CC1	0.69 (inactive)	3.74
CN(C)S(=O)(=O)c1ccc(S(=O)(=O)N2CCN(CCC#N)CC2)cc1	0.71 (inactive)	3.85
Cc1ccc(-c2nnn(CC(=O)N(c3ccccc3F)C(C(=O)NCC3CCCO3)c3c[nH]c4ccccc34)n2)cc1 (stereo not drawn)	0.5 (inactive)	2.67
Cc1ccccc1NC(=O)CSC1=NCCN1	0.69 (inactive)	3.73
CC(C(=O)N1c2ccccc2CCc2ccccc21)n1nnc(-c2ccc(N(C)C)cc2)n1 (stereo not drawn)	1.06 (inactive)	5.7
O=C(NCc1ccc(Cl)cc1)C(=O)NCC1OCCN1C(=O)c1cccs1 (stereo not drawn)	1.33 (inactive)	7.17
CC1CCN(c2ncnc3c2cnn3-c2ccccc2)CC1	0.31 (inactive)	1.65
O=C(NNC(=O)c1cccnc1)Nc1cccc2ccccc12	0.66 (inactive)	3.57
COC(=O)c1cn(NC(=O)c2cccnc2)c(=O)c2ccccc12	0.52 (inactive)	2.79
Cn1c(=O)c2c(nc(OCc3ccccc3)n2C)n(C)c1=O	0.7 (inactive)	3.78
Cc1ccc(S(=O)(=O)N2CCN(c3nc(C)c4c(c3C#N)CC(C)(C)OC4)CC2)cc1	0.72 (inactive)	3.91
CC1=NN(C(=O)c2ccc(Cn3nc(C)c(Br)c3C)cc2)C(O)(C(F)(F)F)C1 (stereo not drawn)	1.15 (inactive)	6.18
O=C1OC(Nc2ccccn2)c2ccccc21 (stereo not drawn)	0.81 (inactive)	4.35
CCc1noc(C)c1C(=O)Nc1nc(-c2cc(C)ccc2C)c(C)s1	0.83 (inactive)	4.48
Cc1cccc(-n2c(N)cc(=O)nc2SCC(=O)Nc2nnc(C)s2)c1	1.54	8.29

Structure (SMILES)	fold increase in Dox EC50	EC50 [µM]
O=C(CCc1ccccc1)Nc1nnc(-c2ccc3c(c2)CCCC3)o1	0.25 (inactive)	1.36
O=C(Nc1nnc(C(F)(F)F)s1)C1COc2ccccc2O1 (stereo not drawn)	0.85 (inactive)	4.56
O=C(CC(=O)N/N=C/c1ccccc1O)NCc1cccnc1	0.39 (inactive)	2.08
COc1ccc(-c2[nH]ncc2-c2cnn(-c3ccccc3)c2)c(O)c1	0.27 (inactive)	1.43
NNC(=O)CNC(c1ccccc1)c1cc(Br)ccc1NC(=O)c1cccc(Cl)c1 (stereo not drawn)	1.21 (inactive)	6.53
Cc1noc(/C=C/N(C)C)c1S(=O)(=O)N1CCCC(C(=O)NCc2ccco2)C1 (stereo not drawn)	1.04 (inactive)	5.6
COc1ccc(N2C(=O)CC(N3CCC(n4c(=O)[nH]c5ccccc54)CC3)C2=O)cc1 (stereo not drawn)	1.04 (inactive)	5.64
COc1ccc(N2C(S)=C(C#N)C(=O)NC2c2ccco2)cc1 (stereo not drawn)	0.41 (inactive)	2.2
COc1ccc(S(=O)(=O)N(CC(=O)N2CCN(c3ccccc3OC)CC2)c2ccccc2)cc1	0.46 (inactive)	2.49
Cc1ccc(C(=O)COc2ccccc2-c2ccccc2)cc1C	0.9 (inactive)	4.85
CNC(=S)Nc1ccc(C23CC4CC(CC(C4)C2)C3)cc1	0.7 (inactive)	3.78
O=C(Nc1ccc(N2CCCCC2)c(Cl)c1)c1ncn[nH]1	0.78 (inactive)	4.22
O=C(CC1SC(=O)N(Cc2ccc(Cl)cc2)C1=O)Nc1nccs1 (stereo not drawn)	1.75	9.46
C=CCNc1oc(COc2ccc(C)cc2)nc1C#N	0.66 (inactive)	3.59
CC(C)(CNC(=O)/C=C/c1ccc(F)cc1)CNC(=O)/C=C/c1ccc(F)cc1	0.38 (inactive)	2.07
N#CC(C#N)=NNc1ccc(S(=O)(=O)N2CCCC2)cc1	1.09 (inactive)	5.88
N#Cc1nc(COc2ccc(Br)cc2)oc1N1CCCCCC1	0.78 (inactive)	4.21
Cc1ccc(N2C(=O)Nc3ccc(Br)cc3C2(O)C(=O)NCCCN(C)C)cc1C (stereo not drawn)	0.69 (inactive)	3.72
COc1ccc(-c2nc(-c3cccc(C)c3)no2)cc1OC	0.69 (inactive)	3.73
Cc1ccc(C)c2sc(NC(=O)c3ccc(N4CCCCC4)c([N+](=O)[O-])c3)nc12	1.05 (inactive)	5.66
O=C(CSc1nccn1-c1cccc(Cl)c1)Nc1ccc2c(c1)OCCO2	1.22 (inactive)	6.58
O=C1CC(N2CCC(n3c(=O)[nH]c4ccccc43)CC2)C(=O)N1c1ccc(F)cc1 (stereo not drawn)	1.41 (inactive)	7.59
O=C(NNC1=C(C(=O)C(F)(F)F)CCC1)c1ccc(Cl)cc1	0.87 (inactive)	4.7
N#CCSc1n[nH]c2nc3c(c(=O)n12)C1(CCCC1)Cc1ccccc1-3	0.46 (inactive)	2.49
Cc1cccc(NC(=O)Cn2c(=O)n(Cc3ccco3)c(=N)c3c4c(sc32)COC(C)(C)C4)c1	0.81 (inactive)	4.37

Structure (SMILES)	fold increase in Dox EC50	EC50 [µM]
Cn1c(=O)n(C/C=C/c2ccccc2)c(=O)c2c1nc1n2CCCN1c1ccc(F)cc1	0.76 (inactive)	4.12
O=C(COc1ccc(Br)cc1)N1CCN(C2CCCC2)CC1	1.08 (inactive)	5.85
c1ccc(C(c2ccccc2)N2CCN(c3nc4ccccc4n4cnnc34)CC2)cc1	0.81 (inactive)	4.39
CC(=O)NN1C(=O)/C(=C\c2ccc(C)cc2)SC1=S	1.47 (inactive)	7.96
Cc1cc(NC(=O)CN2C(=O)S/C(=C\c3ccccc3)C2=O)no1	1.03 (inactive)	5.58
O=C(/C=C/NNC(=O)c1ccccc1)c1ccc(Br)cc1	0.53 (inactive)	2.86
Cc1c(OCC(=O)OC(C)(C)C)ccc2c3c(c(=O)oc12)CCC3	1.04 (inactive)	5.59
COc1ccccc1N1CCN(C(=O)COc2ccc(Cl)cc2)CC1	0.8 (inactive)	4.32
O=C(COc1cccnc1[N+](=O)[O-])Nc1ccc2c(c1)OC(F)(F)O2	0.7 (inactive)	3.8
C/C(=N\NC(=O)c1ccc(Cn2cc([N+](=O)[O-])cn2)o1)c1cccc(NC(=O)c2cccnc2)c1	0.73 (inactive)	3.94
Cc1c(C(=O)OC2CCC(C)CC2)[nH]c2c1C(=O)CCC2 (stereo not drawn)	0.93 (inactive)	5.01
O=C(c1ccco1)N1CCN=C1SCc1ccc(F)cc1	0.87 (inactive)	4.71
O=C(/C(=C/O)N=Nc1ccccc1)c1ccncc1	1.4 (inactive)	7.54
Cc1ccc(OCc2nnc(SCC(=O)N3c4ccccc4Sc4ccc(Cl)cc43)o2)cc1	0.85 (inactive)	4.57
Cc1cc(C)n2nc(C(=O)Nc3nnc(C4CC4)s3)nc2n1	0.87 (inactive)	4.7
CCNc1sc(C(=O)c2cccs2)c(N)c1-c1nc2ccccc2s1	0.59 (inactive)	3.17
CCc1nnc(NC(=O)C2COc3ccccc3O2)s1 (stereo not drawn)	1.1 (inactive)	5.95
CCC(C)c1ccc(O)c(NC(=O)c2ncn[nH]2)c1 (stereo not drawn)	0.97 (inactive)	5.25
O=C(Cn1c(=O)c2c(ncn2Cc2ccccc2)n(Cc2ccccc2)c1=O)N1CCc2ccccc21	1.07 (inactive)	5.76
Cc1ccc(C)c(N2CCN(C(=O)Cc3ccc(-n4c(=O)[nH]c5ccsc5c4=O)cc3)CC2)c1	0.58 (inactive)	3.12
Cc1cc(N/N=C/c2ccccc2Cl)nc(NCc2ccccc2)n1	0.2 (inactive)	1.08
O=C(NCCc1ccccc1)C(=O)c1c(-c2ccccc2)cc2ccccn12	1.08 (inactive)	5.84
CCN(CC)S(=O)(=O)c1cc(NC(=O)C(=O)c2c(-c3ccccc3)cc3ccccn23)ccc1C	1.28 (inactive)	6.91
O=C1c2cccc3cccc(c23)C(=O)N1c1ccncc1	1.13 (inactive)	6.09

From PubChem BioAssay AID844 (SRMLSC, 2007)
